Earlier results as cited in US8524202B2, “Tooth whitening compositions and methods” (priority 2008, dated 2013).

Settings: at six months; concentrations 16%-18% carbamide peroxide; Brunton et al., 2004

SMILES: NC(N)=O.OO [carbamide peroxide]
- rebound, patients: 40%
